Assay results taken from patent US20090170899A1, “Stimulators of 5-HT4 receptors and uses thereof” (priority 2004, published 2009).

Legend:
Assay type in all cases: in vivo, rat
DRN 5-HT neurons = assay: Extracellular single-unit recordings of DRN 5-HT neuron mean firing rate in anaesthetized rats; conditions: prucalopride 2.5 mg/kg, RS 67333 1.5 mg/kg; for enhancement of DRN 5-HT neuron mean firing rate vs control: s.c. osmotic minipumps; for increase of DRN 5-HT neuron firing rate with respect to controls: subacute i.p., 30 min before recordings
[1] = Forced swimming test (FST); conditions: for change of total time of immobility in FST: Example 3, single i.p. 30 min before test, citalopram or paroxetine 10 mg/kg; for change of total time of immobility in FST / time of immobility in FST: prucalopride 2.5 mg/kg, RS 67333 1.5 mg/kg; for time of immobility in FST: 4 min observation, i.p. 30 min before test, control 88.2±7.2
Text: The “forced swimming test” (FST) is a behavioural test for rodents, which predicts the efficacy of antidepressant drugs (Porsolt et al., 1977; Lucki, 1997). […] The widespread use of this model is largely a result of its ease of use, reliability across laboratories and ability to detect a broad spectrum of antidepressant agents. The test is based on the observation that rats, following initial escape-oriented movements (climbing and swimming), develop an immobile posture when placed in an inescapable cylinder of water. If they are replaced in the same testing apparatus 24 h later, they resume this immobile posture quickly. The immobility is thought to reflect either a failure of persistence in escape-directed behavior (i.e. behavioral despair) or the development of passive behavior that disengages the animal from active forms of coping with stressful stimuli. If antidepressant treatments are given between the two exposures, the subjects will actively persist engaging in escape-directed behaviors for longer periods of time than after vehicle treatment. This will be reflected by a reduction of immobility time, and by an increase of climbing attempts. […] The combination effect of a particular 5-HT4 agonist and a SSRI may be evaluated using the FST model.
Experiments were carried out in male Sprague-Dawley rats (Charles River, St Constant, Québec). We used the FST as previously described (Porsolt et al., 1977). Briefly, the rats experienced a pretest session followed 24 hours later by a test session. For both the pretest and the test sessions, conducted under low illumination (12 lx), the rats were placed in a plastic cylindrical tank (50 cm high by 20 cm in diameter) filled with water at […], with a depth of 40 cm, for which the hind limbs could not reach the tank floor. In all experiments, the pretest was carried out for 15 min and the test for 5 min in the same tank but only the last 4 min were analyzed. Following either pretest or test sessions, rats were dried with a towel and kept warm for 30 min before returning in their home cage. A digital camera recorded on line animal's behavior during the FST, and both time of immobility and climbing attempts were counted. Citalopram hydrobromide (10 mg/kg, i.p.) or paroxetine (10 mg/kg, i.p.) and prucalopride hydrochloride (2.5 mg/kg, i.p.) or RS 67333 hydrochloride (1.5 mg/kg, i.p.) were administered simultaneously 30 minutes before the test session. Animals were divided into 4 groups: vehicle/vehicle, 5-HT4 agonist/vehicle, vehicle/SSRI and 5-HT4 agonist/SSRI. For each compound, distilled water was used as the vehicle. All drug dosages refer to the free base.
Behavioral experiments. We used the FST as previously described (Porsolt et al., 1977). Briefly, rats experienced a pre-test session followed 24 hours later by a test session. For both the pre-test and the test sessions, conducted under low illumination (12 lx), the animals were placed in a plastic cylindrical tank (50 cm high by 20 cm in diameter) filled with water at […], with a depth of 40 cm, for which the hind limbs could not reach the tank floor. In all experiments, the pre-test was carried out for 15 min and the test for 5 min in the same tank but the last 4 min only were analyzed. Prucalopride (2.5 mg/kg, i.p.) and RS 67333 (1.5 mg/kg, i.p.) were administered 30 min before the test session. Following either pre-test or test sessions, rats were dried with a towel and kept warm for 30 min before returning in their home cage. A camera coupled with a computer recorded on line animal behavior during the FST through a specialized digital interface (Videotrack, ViewPoint, Lyon, France). This interface underscored on line the subtraction of video frames. Immobility time in FST was derived from the number of frames (every 40 ms) being below a predefined threshold over FST duration.

[2] = tested on: CREB phosphorylation in the hippocampus; assay: CREB and pCREB immunoreactivities in hippocampal tissue after 3-day treatment; conditions: 3 days, prucalopride 2.5, RS 67333 1.5 mg/kg/day; for pCREB/CREB ratio in hippocampal tissue: control 0.196±0.02
Procedure: Drugs and Chemicals. […] All compounds were diluted in distilled water. All drug dosages refer to the free base. […] BrdU treatments consisted of two administrations per day (50 mg/kg, i.p. each, 8 h interval), starting from the day of minipump insertion until day 2 post-surgery.

SMILES	enhancement of DRN 5-HT neuron mean firing rate vs control (DRN 5-HT neurons; 3-day continuous treatment)	enhancement of DRN 5-HT neuron mean firing rate vs control (DRN 5-HT neurons; 21-day continuous treatment)	increase of DRN 5-HT neuron firing rate with respect to controls (DRN 5-HT neurons)	change of total time of immobility in FST [1]	time of immobility in FST ([1]; Example 6)	increase of climbing in FST ([1]; Example 6, RS 67333 1.5 mg/kg i.p.)	pCREB/CREB ratio in hippocampal tissue [2]	increase of pCREB/CREB ratio vs control [2]
CCCCN1CCC(CCC(=O)c2cc(Cl)c(N)cc2OC)CC1 [RS 67333, 1-(4-amino-5-chloro-2-methoxyphenyl)-3-(1-n-burtl-4-piperidinyl)-1-propanone]	79%	59%	66%	very similar effect	42.7 ± 4.9 s	+94%	0.373±0.07	–
COCCCN1CCC(NC(=O)c2cc(Cl)c(N)c3c2OCC3)CC1 [prucalopride]	+50%	+36%	40%	−54%	43.4 ± 3.5 s	–	0.302±0.07	+54%
